Experimental data published in patent US12509482B2, “3′-ketoglycoside compound for the slow release of a volatile alcohol” (GLYCOSCIENCE, S.L., priority 2020, dated 2025).
Structures can show the parent of a compound that is named as a salt.

Assays:
Assay type in all cases: physicochemical
[1] = Example 29: release of phenol from phenyl-O-β-D-3′-keto-6′-sulphatoglucopyranoside pyridinium salt, 0.1 M deuterated phosphate buffer, 15% D6-DMSO, 32° C.
Experimental: In this example the rate of release of phenol from ((2R,3R,5S,6S)-3,5-dihydroxy-4-oxo-6-phenoxytetrahydro-2H-pyran-2-yl)methyl hydrogen sulfate pyridinium salt (phenyl-O-β-D-3′-keto-6′-sulphatoglucopyranoside pyridinium salt) in 0.1 M deuterated phosphate buffer solutions of differing pH containing 15% D6-DMSO was determined.
(§1) 0.1 M of pH 5.8 and 7.4 stock buffered solutions of sodium dihydrogen phosphate and disodium hydrogen phosphate were prepared in deuterated water (D2O).
A stock solution of 20 mg of phenyl-O-β-D-3′-keto-6′-sulphatoglucopyranoside in 0.5 mL of D6-DMSO were prepared.
(§2) To two parallel reaction vials, where indicated in the reaction table below, was added 0.10 mL of the glycoside substrate solutions in D6-DMSO and 0.60 mL of low or high pH 0.1M phosphate buffer in D2O and the mixtures incubated by shaking at 32° C. After times indicated in table below, the mixtures where analysed by ^1H-NMR in a 400 MHz instrument.

[2] = Example 13: release of 4-nitrophenol from substrate A (4-nitrophenyl-O-β-D-3′-ketoglucopyranoside) vs substrate B (4-nitrophenyl-O-β-D-glucopyranoside), 0.1 M deuterated phosphate buffer or water, 10% D6-DMSO, room temperature; conditions: for composition by 1H-NMR (aromatic signals): approximately 26 h
Experimental: In this example, 4-nitrophenyl-O-β-D-3′-ketoglucopyranoside and 4-nitrophenyl-O-beta-D-glucopyranoside were used as model compounds to determine the rate of release of an aromatic alcohol (4-nitrophenol) under different conditions.
Rate of release of 4-nitrophenol from (2R,3R,5S,6S)-3,5-dihydroxy-2-(hydroxymethyl)-6-(4-nitrophenoxy)tetrahydro-4H-pyran-4-one (4-nitrophenyl-O-β-D-3′-ketoglucopyranoside) was determined in comparison to (2R,3S,4S,5R,6S)-2-(hydroxymethyl)-6-(4-nitrophenoxy)tetrahydro-2H-pyran-3,4,5-triol (para-nitrophenyl-O-β-D-glucopyranoside) in 0.1 M deuterated phosphate buffer solutions of differing pH containing 10% D6-DMSO or in water containing 10% D6-DMSO at room temperature.
1 M Stock solutions of sodium dihydrogen phosphate and disodium hydrogen phosphate were prepared in deuterated water (D2O). Stock solutions of 25 mg of 4-nitrophenyl-O-β-D-3′-ketoglucopyranoside (substrate A), 25 mg of 4-nitrophenyl-O-β-D-glucopyranoside (substrate B) in 0.5 mL of D6-DMSO were each prepared and a stock solution of 11 mg of 4-nitrophenol in the same volume of D6-DMSO for visual comparison.
Solutions of pH 4.5, 5.8, 7.4 and 9.5 were prepared by dilution of the appropriate individual or mixture of stock phosphate salt solutions to 0.1 M using a calibrated pH meter.
To ten parallel reaction vials was added 0.05 mL of one of the glycoside substrate stock solutions in D6-DMSO, 0.5 mL of the appropriate deuterated buffer solution or 0.5 mL of water were indicated in Table I below. The reaction vials were allowed to stand at room temperature and the colour of the solutions recorded by visual observation relative to the colour of authentic 4-nitrophenol solutions diluted in the same way, as shown in Table I:
After approximately 26 h, reactions 2 to 5 were all analysed by ^1H-NM R using 128 scans on a 400 MHz instrument.

[3] = Example 22: competitive release of para-nitrophenol from an approximately equimolar solution of 4-nitrophenyl-O-β-D- and -O-α-D-3′-ketoglucopyranoside, 32° C., 1H NMR integrals
Source text: In this example the competitive rate of release of para-nitrophenol from an approximately equimolar solution of (2R,5S,6S)-3,5-dihydroxy-2-(hydroxymethyl)-6-(4-nitrophenoxy)tetrahydro-4H-pyran-4-one (4-nitrophenyl-O-β-D-3′-ketoglucopyranoside) and (2R,5S,6S)-3,5-dihydroxy-2-(hydroxymethyl)-6-(4-nitrophenoxy)tetrahydro-4H-pyran-4-one (4-nitrophenyl-O-α-D-3′-ketoglucopyranoside) in D2O containing 1.5% D6-DMSO or in 0.1 M deuterated phosphate buffer, pH 5.8 containing 1.5% D6-DMSO or in D2O was determined.
A solution containing approximately 2 mg each of 4-nitrophenyl-O-β-D-3′-ketoglucopyranoside and 4-nitrophenyl-O-α-D-3′-ketoglucopyranoside was prepared in 1 mL of D2O containing 3.3% v/v D6-DMSO. To two 0.375 mL portions of the resultant solution was added either D2O (0.5 mL) or 0.1M sodium phosphate buffer, pH 5.8 (0.5 mL) to given reactions 1 and 2 respectively. The resultant mixtures were analysed by ^1H NMR directly following preparation then incubated at 32° C./80 rpm and periodically analysed by ^1H NMR at recorded time points.
The change in the ratio between the integrals of the anomeric protons of each ketoglucoside and between the were sum of the anomeric protons and the anomeric protons of each ketoglucoside with time are shown in Table IX: […]

[4] = Description: alcohol release from model compounds (III), (IV) and compound (V) in buffer, water and skin washings; conditions: 20 mg/mL mixture; after 3 d
[5] = Example 20: release of (S)-α-terpineol from (S)-α-terpineol-O-β-D-3′-ketoglucopyranoside, 0.1 M deuterated phosphate buffer, 33% D6-DMSO, 32° C.
Experimental: In this example the rate of release of (S)-α-terpineol from (2R,3R,5S)-3,5-dihydroxy-2-(hydroxymethyl)-6-((5-(2-hydroxypropan-2-yl)-2-methylcyclohexyl)oxy) tetrahydro-4H-pyran-4-one ((S)-α-terpineol-O-β-D-3′-ketoglucopyranoside) in 0.1 M deuterated phosphate buffer solutions of differing pH containing 33% D6-DMSO was determined.
as §1
A stock solution of 10 mg of (S)-α-terpineol-O-β-D-3′-ketoglucopyranoside in 0.5 mL of D6-DMSO were prepared.
as §2, with “0.20” for “0.10”, “0.40” for “0.60”

[6] = Example 28: release of methanol from methyl-β-3′-ketoglucuronide methyl ester, 0.1 M deuterated phosphate buffer, 10% D6-DMSO, 32° C.
Experimental: In this example the rate of release of methanol from methyl (2R,3R,5S,6S)-3,5-dihydroxy-6-methoxy-4-oxotetrahydro-2H-pyran-2-carboxylate (methyl-β-3′-ketoglucuronide methyl ester) in D2O containing 10% D6-DMSO or in 0.1 M deuterated phosphate buffer solutions of differing pH containing 10% D6-DMSO or in D2O was determined.
as §1
A stock solution of 20 mg of methyl-β-3′-ketoglucuronide methyl ester in 0.25 mL of D6-DMSO were prepared.
as §2, with “0.05” for “0.10”, “0.55” for “0.60”

[7] = Example 15: release of carvacrol from carvacrol-O-β-D-3′-ketoglucopyranoside, 0.1 M deuterated phosphate buffer, 20% D6-DMSO, 32° C.
Experimental: In this example the rate of release of carvacrol from ((2R,3R,5S)-3,5-dihydroxy-2-(hydroxymethyl)-6-(5-isopropyl-2-methylphenoxy)tetrahydro-4H-pyran-4-one (carvacrol-O-β-D-3′-ketoglucopyranoside) in 0.1 M deuterated phosphate buffer solutions of differing pH containing 20% D6-DMSO was determined. 0.1 M of pH 5.8 and 7.4 stock buffered solutions of sodium dihydrogen phosphate and disodium hydrogen phosphate were prepared in deuterated water (D2O).
A stock solution of 15 mg of carvacrol-O-β-D-3′ketoglucopyranoside in 1.0 mL of D6-DMSO were prepared.
as §2, with “was added 0.20 mL of” for “was added 0.10 mL of”, “D6-DMSO and […] of” for “D6-DMSO and 0.60 mL of”, “buffer in D2O or D2O and” for “buffer in D2O and”

O=C1[C@@H](O)[C@H](Oc2ccccc2)O[C@H](COS(=O)(=O)O)[C@H]1O [((2R,3R,5S,6S)-3,5-dihydroxy-4-oxo-6-phenoxytetrahydro-2H-pyran-2-yl)methyl hydrogen sulfate pyridinium salt]
phenol release (in words) ([1]; 32° C.): generates phenol at pH 7.4 | % Conversion by 1H-NMR ([1]; Reaction 1, pH 5.8, 0 h): 1% | % Conversion by 1H-NMR ([1]; Reaction 1, pH 5.8, 5 h): 2% | % Conversion by 1H-NMR ([1]; Reaction 1, pH 5.8, 20 h): 2% | % Conversion by 1H-NMR ([1]; Reaction 1, pH 5.8, 100 h): 2% | % Conversion by 1H-NMR ([1]; Reaction 2 (0.60 mL of pH 5.8 buffer), 0 h): 4% | % Conversion by 1H-NMR ([1]; Reaction 2 (0.60 mL of pH 5.8 buffer), 5 h): 15% | % Conversion by 1H-NMR ([1]; Reaction 2 (0.60 mL of pH 5.8 buffer), 20 h): 38% | % Conversion by 1H-NMR ([1]; Reaction 2 (0.60 mL of pH 5.8 buffer), 100 h): 84%

O=C1[C@@H](O)[C@H](Oc2ccc([N+](=O)[O-])cc2)O[C@H](CO)[C@H]1O [(2R,5S,6S)-3,5-dihydroxy-2-(hydroxymethyl)-6-(4-nitrophenoxy)tetrahydro-4H-pyran-4-one]
composition by 1H-NMR (aromatic signals) ([2]; reaction 2, pH 4.5): only starting material | composition by 1H-NMR (aromatic signals) ([2]; reaction 3, pH 5.8): a mixture to starting material and 4-nitrophenol | composition by 1H-NMR (aromatic signals) ([2]; reaction 4, pH 7.4): almost entirely 4-nitrophenol with a trace of starting material | composition by 1H-NMR (aromatic signals) ([2]; reaction 5, pH 9.5): almost entirely 4-nitrophenol with a trace of starting material | 4-nitrophenol release (in words) ([2]; varying solution pH, room temperature, 0.5 mL of aqueous solution): from no release at low pH to the delivery of μg quantities of 4-nitrophenol per minute | ratio of the sum of aromatic/β-ketoglucoside proton integrals ([3]; Reaction 1, D2O, 0 h): 6.8 | ratio of the sum of aromatic/β-ketoglucoside proton integrals ([3]; Reaction 1, D2O, 20 h): 8.3 | ratio of the sum of aromatic/β-ketoglucoside proton integrals ([3]; Reaction 1, D2O, 45 h): 8.8 | ratio of the sum of aromatic/β-ketoglucoside proton integrals ([3]; Reaction 1, D2O, 143 h): 8.3 | ratio of the sum of aromatic/β-ketoglucoside proton integrals ([3]; Reaction 2, 0.1M sodium phosphate buffer, pH 5.8, 0 h): 6.6 | ratio of the sum of aromatic/β-ketoglucoside proton integrals ([3]; Reaction 2, 0.1M sodium phosphate buffer, pH 5.8, 20 h): 7.2 | ratio of the sum of aromatic/β-ketoglucoside proton integrals ([3]; Reaction 2, 0.1M sodium phosphate buffer, pH 5.8, 45 h): 9.7 | ratio of the sum of aromatic/β-ketoglucoside proton integrals ([3]; Reaction 2, 0.1M sodium phosphate buffer, pH 5.8, 143 h): 10.6

CC(C)=CCC/C(C)=C/CO[C@@H]1O[C@H](CO)[C@@H](O)[C@H](O)[C@H]1O [geranyl-O-β-D-glucopyranoside]
aroma of geraniol on opening the stoppered reaction vessel [4]: not present

CC1=CC[C@@H](C(C)(C)O[C@@H]2O[C@H](CO)[C@@H](O)C(=O)[C@H]2O)CC1 [(2R,3R,5S,6S)-3,5-dihydroxy-2-(hydroxymethyl)-6-((2-((S)-4-methylcyclohex-3-en-1-yl)propan-2-yl)oxy)tetrahydro-4H-pyran-4-one]
pH dependence of (S)-α-terpineol release (in words) ([5]; 32° C.): only slowly degraded at pH 5.8, but releases (S)-α-terpineol at a significantly higher rate at pH 7.4 | % Conversion by 1H-NMR ([5]; pH 5.8, 0 h): 0% | % Conversion by 1H-NMR ([5]; pH 5.8, 3 h): 0% | % Conversion by 1H-NMR ([5]; pH 5.8, 20 h): 0% | % Conversion by 1H-NMR ([5]; pH 5.8, 95 h): 0% | % Conversion by 1H-NMR ([5]; pH 7.4, 0 h): 0% | % Conversion by 1H-NMR ([5]; pH 7.4, 3 h): 5% | % Conversion by 1H-NMR ([5]; pH 7.4, 20 h): 28% | % Conversion by 1H-NMR ([5]; pH 7.4, 95 h): 77% | % Conversion by 1H-NMR ([5]; pH 7.4, column head 167): 85%

COC(=O)[C@H]1OC(OC)[C@H](O)C(=O)[C@@H]1O (stereo in doubt) [methyl-β-3′-ketoglucuronide methyl ester, methyl (2S,3R,5S,6S)-3,5-dihydroxy-6-methoxy-4-oxotetrahydro-2H-pyran-2-carboxylate]
methanol release (in words) ([6]; 32° C.): generates methanol at both pH 5.8 and pH 7.4 | % Conversion by 1H-NMR ([6]; pH 5.8, 0 h): 0% | % Conversion by 1H-NMR ([6]; pH 5.8, 5 h): 2% | % Conversion by 1H-NMR ([6]; pH 5.8, 20 h): 7% | % Conversion by 1H-NMR ([6]; pH 5.8, 163 h (printed under the 72 h column)): 23% | % Conversion by 1H-NMR ([6]; pH 7.4, 0 h): 0% | % Conversion by 1H-NMR ([6]; pH 7.4, 5 h): 15% | % Conversion by 1H-NMR ([6]; pH 7.4, 20 h): 38% | % Conversion by 1H-NMR ([6]; pH 7.4, 72 h): 100%

Cc1ccc(C(C)C)cc1O[C@@H]1O[C@H](CO)[C@@H](O)C(=O)[C@H]1O [carvacrol-O-β-D-3′-ketoglucopyranoside, (2R,3R,5S,6S)-3,5-dihydroxy-2-(hydroxymethyl)-6-(5-isopropyl-2-methylphenoxy)tetrahydro-4H-pyran-4-one]
pH dependence of carvacrol release (in words) ([7]; 32° C.): only slowly degraded at pH 5.8, but releases carvacrol at a significantly higher rate at pH 7.4 | % Conversion by 1H-NMR ([7]; pH 5.8, 1 h): 2% | % Conversion by 1H-NMR ([7]; pH 5.8, 5 h): <5% | % Conversion by 1H-NMR ([7]; pH 5.8, 23 h): <5% | % Conversion by 1H-NMR ([7]; pH 5.8, 69 h): <5% | % Conversion by 1H-NMR ([7]; pH 7.4, 1 h): 8% | % Conversion by 1H-NMR ([7]; pH 7.4, 5 h): 14% | % Conversion by 1H-NMR ([7]; pH 7.4, 23 h): 83% | % Conversion by 1H-NMR ([7]; pH 7.4, 69 h): 100%
